Results published in patent US10987359B2, “Oxadiazepinone derivatives and methods of treating hepatitis B infections” (priority 2016, dated 2021).

Tested on: HBV
Assay: HBV replication inhibition assay (BDNA assay) in HepG2.2.15 cells
Assay type: cell-based
Details: Hepatitis B virus, HepG2.2.15, HBV replication assay (BDNA assay), HepG2.2.15 cells; read-out: DNA EC50
Method in brief: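 HepG2.2.15 cells with stably integrated HBV were treated with serially diluted compounds at 0.5% DMSO for 6 days, with medium and compound refreshed at day 3. Encapsidated HBV DNA from DNase-treated supernatant was quantified by branched DNA assay. EC50 came from % inhibition versus DMSO, fitted non-linearly.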

`CCc1cccc(NC(=O)N2CCc3nn4c(c3C2)C(=O)N(C)OC(CO)C4)c1` (stereo not drawn) [Compound 009, N-(3-ethylphenyl)-4-(hydroxymethyl)-2-methyl-1-oxo-1,4,5,8,9,11-hexahydropyrido[4′,3′:3,4]pyrazolo[5,1-d][1,2,5]oxadiazepine-10(2H)-carboxamide] and `CN1OC(CO)Cn2nc3c(c2C1=O)CN(C(=O)Nc1cccc(I)c1)CC3` (stereo not drawn) [Compound 020, 4-(hydroxymethyl)-N-(3-iodophenyl)-2-methyl-1-oxo-1,4,5,8,9,11-hexahydropyrido[4′,3′:3,4]pyrazolo[5,1-d][1,2,5]oxadiazepine-10(2H)-carboxamide] fall in the same range of EC50: 0.001 to 0.1 µM for the first, 0.001 to 0.1 µM for the second.

`CN1OC(CO)Cn2nc3c(c2C1=O)CN(C(=O)Nc1ccc(F)c(Br)c1F)CC3` (stereo not drawn) [Compound 010, N-(3-bromo-2,4-difluorophenyl)-4-(hydroxymethyl)-2-methyl-1-oxo-1,4,5,8,9,11-hexahydropyrido[4′,3′:3,4]pyrazolo[5,1-d][1,2,5]oxadiazepine-10(2H)-carboxamide] and `CN1OC(CO)Cn2nc3c(c2C1=O)CN(C(=O)Nc1cc(Br)c(F)cc1F)CC3` (stereo not drawn) [Compound 014, N-(5-bromo-2,4-difluorophenyl)-4-(hydroxymethyl)-2-methyl-1-oxo-1,4,5,8,9,11-hexahydropyrido[4′,3′:3,4]pyrazolo[5,1-d][1,2,5]oxadiazepine-10(2H)-carboxamide] fall in the same range of EC50: 0.001 to 0.1 µM for the first, 0.001 to 0.1 µM for the second.

`CN1OC(CO)Cn2nc3c(c2C1=O)CN(C(=O)Nc1ccc(Cl)c(Cl)c1)CC3` (stereo not drawn) [Compound 012, N-(3,4-dichlorophenyl)-4-(hydroxymethyl)-2-methyl-1-oxo-1,4,5,8,9,11-hexahydropyrido[4′,3′:3,4]pyrazolo[5,1-d][1,2,5]oxadiazepine-10(2H)-carboxamide] and `Cc1ccc(NC(=O)N2CCc3nn4c(c3C2)C(=O)N(C)OC(CO)C4)cc1Cl` (stereo not drawn) [Compound 026, N-(3-chloro-4-methylphenyl)-4-(hydroxymethyl)-2-methyl-1-oxo-1,4,5,8,9,11-hexahydropyrido[4′,3′:3,4]pyrazolo[5,1-d][1,2,5]oxadiazepine-10(2H)-carboxamide] fall in the same range of EC50: 0.001 to 0.1 µM for the first, 0.001 to 0.1 µM for the second.

`CN1OC(CO)Cn2nc3c(c2C1=O)CN(C(=O)Nc1cc(Cl)c(F)cc1F)CC3` (stereo not drawn) [Compound 013, N-(5-chloro-2,4-difluorophenyl)-4-(hydroxymethyl)-2-methyl-1-oxo-1,4,5,8,9,11-hexahydropyrido[4′,3′:3,4]pyrazolo[5,1-d][1,2,5]oxadiazepine-10(2H)-carboxamide] and `CN1OC(CO)Cn2nc3c(c2C1=O)CN(C(=O)Nc1cc(Cl)c(Cl)cc1F)CC3` (stereo not drawn) [Compound 027, N-(4,5-dichloro-2-fluorophenyl)-4-(hydroxymethyl)-2-methyl-1-oxo-1,4,5,8,9,11-hexahydropyrido[4′,3′:3,4]pyrazolo[5,1-d][1,2,5]oxadiazepine-10(2H)-carboxamide] fall in the same range of EC50: 0.001 to 0.1 µM for the first, 0.001 to 0.1 µM for the second.

`CN1OC(CO)Cn2nc3c(c2C1=O)CN(C(=O)Nc1cc(F)c(F)c(Br)c1)CC3` (stereo not drawn) [Compound 015, N-(3-bromo-4,5-difluorophenyl)-4-(hydroxymethyl)-2-methyl-1-oxo-1,4,5,8,9,11-hexahydropyrido[4′,3′:3,4]pyrazolo[5,1-d][1,2,5]oxadiazepine-10(2H)-carboxamide] and `Cc1cc(F)c(Br)cc1NC(=O)N1CCc2nn3c(c2C1)C(=O)N(C)OC(CO)C3` (stereo not drawn) [Compound 018, N-(5-bromo-4-fluoro-2-methylphenyl)-4-(hydroxymethyl)-2-methyl-1-oxo-1,4,5,8,9,11-hexahydropyrido[4′,3′:3,4]pyrazolo[5,1-d][1,2,5]oxadiazepine-10(2H)-carboxamide] fall in the same range of EC50: 0.001 to 0.1 µM for the first, 0.001 to 0.1 µM for the second.

`Cc1ccc(C)c(NC(=O)N2CCc3nn4c(c3C2)C(=O)N(C)OC(CO)C4)c1` (stereo not drawn) [Compound 016, N-(2,5-dimethylphenyl)-4-(hydroxymethyl)-2-methyl-1-oxo-1,4,5,8,9,11-hexahydropyrido[4′,3′:3,4]pyrazolo[5,1-d][1,2,5]oxadiazepine-10(2H)-carboxamide] and `Cc1ccc(Br)cc1NC(=O)N1CCc2nn3c(c2C1)C(=O)N(C)OC(CO)C3` (stereo not drawn) [Compound 017, N-(5-bromo-2-methylphenyl)-4-(hydroxymethyl)-2-methyl-1-oxo-1,4,5,8,9,11-hexahydropyrido[4′,3′:3,4]pyrazolo[5,1-d][1,2,5]oxadiazepine-10(2H)-carboxamide] fall in the same range of EC50: 0.001 to 0.1 µM for the first, 0.001 to 0.1 µM for the second.

Compared with `CC1CCCC(NC(=O)N2CCc3nn4c(c3C2)C(=O)N(C)OC(CO)C4)C1` (stereo not drawn) [Compound 019, 4-(hydroxymethyl)-2-methyl-N-(3-methylcyclohexyl)-1-oxo-1,4,5,8,9,11-hexahydropyrido[4′,3′:3,4]pyrazolo[5,1-d][1,2,5]oxadiazepine-10(2H)-carboxamide], `CN1OC(CO)Cn2nc3c(c2C1=O)CN(C(=O)Nc1cccc(Cl)c1)CC3` (stereo not drawn) [Compound 030, N-(3-chlorophenyl)-4-(hydroxymethyl)-2-methyl-1-oxo-1,4,5,8,9,11-hexahydropyrido[4′,3′:3,4]pyrazolo[5,1-d][1,2,5]oxadiazepine-10(2H)-carboxamide] is lower in EC50: 0.5 to 1 µM for the first, 0.001 to 0.1 µM for the second. The second is the more potent here.

`CN1OC(CO)Cn2nc3c(c2C1=O)CN(C(=O)Nc1cccc(C(F)F)c1)CC3` (stereo not drawn) [Compound 021, N-(3-(difluoromethyl)phenyl)-4-(hydroxymethyl)-2-methyl-1-oxo-1,4,5,8,9,11-hexahydropyrido[4′,3′:3,4]pyrazolo[5,1-d][1,2,5]oxadiazepine-10(2H)-carboxamide] and `CN1OC(CO)Cn2nc3c(c2C1=O)CN(C(=O)Nc1cccc(S(F)(F)(F)(F)F)c1)CC3` (stereo not drawn) [Compound 029, 4-(hydroxymethyl)-2-methyl-1-oxo-N-(3-(pentafluoro-16-sulfanyl)phenyl)-1,4,5,8,9,11-hexahydropyrido[4′,3′:3,4]pyrazolo[5,1-d][1,2,5]oxadiazepine-10(2H)-carboxamide] fall in the same range of EC50: 0.001 to 0.1 µM for the first, 0.001 to 0.1 µM for the second.

`CN1OC(CO)Cn2nc3c(c2C1=O)CN(C(=O)Nc1cc(Cl)c(F)c(C(F)(F)F)c1)CC3` (stereo not drawn) [Compound 022, N-(3-chloro-4-fluoro-5-(trifluoromethyl)phenyl)-4-(hydroxymethyl)-2-methyl-1-oxo-1,4,5,8,9,11-hexahydropyrido[4′,3′:3,4]pyrazolo[5,1-d][1,2,5]oxadiazepine-10(2H)-carboxamide] and `CN1OC(CO)Cn2nc3c(c2C1=O)CN(C(=O)Nc1ccc(Cl)c(C(F)(F)F)c1)CC3` (stereo not drawn) [Compound 025, N-(4-chloro-3-(trifluoromethyl)phenyl)-4-(hydroxymethyl)-2-methyl-1-oxo-1,4,5,8,9,11-hexahydropyrido[4′,3′:3,4]pyrazolo[5,1-d][1,2,5]oxadiazepine-10(2H)-carboxamide] fall in the same range of EC50: 0.001 to 0.1 µM for the first, 0.001 to 0.1 µM for the second.

`CN1OC(CO)Cn2nc3c(c2C1=O)CN(C(=O)Nc1ccc(F)c(Cl)c1Cl)CC3` (stereo not drawn) [Compound 023, N-(2,3-dichloro-4-fluorophenyl)-4-(hydroxymethyl)-2-methyl-1-oxo-1,4,5,8,9,11-hexahydropyrido[4′,3′:3,4]pyrazolo[5,1-d][1,2,5]oxadiazepine-10(2H)-carboxamide] and `CN1OC(CO)Cn2nc3c(c2C1=O)CN(C(=O)Nc1ccc(Cl)c(Cl)c1F)CC3` (stereo not drawn) [Compound 024, N-(3,4-dichloro-2-fluorophenyl)-4-(hydroxymethyl)-2-methyl-1-oxo-1,4,5,8,9,11-hexahydropyrido[4′,3′:3,4]pyrazolo[5,1-d][1,2,5]oxadiazepine-10(2H)-carboxamide] fall in the same range of EC50: 0.001 to 0.1 µM for the first, 0.001 to 0.1 µM for the second.

`CN1OC(CF)Cn2nc3c(c2C1=O)CN(C(=O)Nc1cccc(C(F)(F)F)c1)CC3` (stereo not drawn) [Compound 036, 4-(fluoromethyl)-2-methyl-1-oxo-N-(3-(trifluoromethyl)phenyl)-1,4,5,8,9,11-hexahydropyrido[4′,3′:3,4]pyrazolo[5,1-d][1,2,5]oxadiazepine-10(2H)-carboxamide] and `CSCC1Cn2nc3c(c2C(=O)N(C)O1)CN(C(=O)Nc1ccc(F)c(Cl)c1)CC3` (stereo not drawn) [Compound 048, N-(3-chloro-4-fluoro-phenyl)-2-methyl-4-(methylsulfanylmethyl)-1-oxo-5,8,9,11-tetrahydro-4H-pyrido[2,3]pyrazolo[2,4-d][1,2,5]oxadiazepine-10-carboxamide] fall in the same range of EC50: 0.001 to 0.1 µM for the first, 0.001 to 0.1 µM for the second.

First: CN1OC(CO)Cn2nc3c(c2C1=O)CN(C(=O)N(C)c1ccc(F)c(Cl)c1)CC3 (stereo not drawn) [Compound 045, N-(3-chloro-4-fluorophenyl)-4-(hydroxymethyl)-N,2-dimethyl-1-oxo-1,4,5,8,9,11-hexahydropyrido[4′,3′:3,4]pyrazolo[5,1-d][1,2,5]oxadiazepine-10(2H)-carboxamide]
Second: CN1OC(CS(C)(=O)=O)Cn2nc3c(c2C1=O)CN(C(=O)Nc1ccc(F)c(Cl)c1)CC3 (stereo not drawn) [Compound 050, N-(3-chloro-4-fluorophenyl)-2-methyl-4-((methylsulfonyl)methyl)-1-oxo-1,4,5,8,9,11-hexahydropyrido[4′,3′:3,4]pyrazolo[5,1-d][1,2,5]oxadiazepine-10(2H)-carboxamide]
The EC50 of the first is higher: 0.1 to 0.5 µM for the first, 0.001 to 0.1 µM for the second. The second is the more potent here.

`CN1OC(CO)Cn2nc3c(c2C1=O)CN(C(=O)Nc1cccc(Cl)c1)CC3(C)C` (stereo not drawn) [Compound 046, N-(3-chlorophenyl)-4-(hydroxymethyl)-2,8,8-trimethyl-1-oxo-1,4,5,8,9,11-hexahydropyrido[4′,3′:3,4]pyrazolo[5,1-d][1,2,5]oxadiazepine-10(2H)-carboxamide] and `CC1CN(C(=O)Nc2cccc(Cl)c2)Cc2c1nn1c2C(=O)N(C)OC(CO)C1` (stereo not drawn) [Compound 047, N-(3-chlorophenyl)-4-(hydroxymethyl)-2,8-dimethyl-1-oxo-1,4,5,8,9,11-hexahydropyrido[4′,3′:3,4]pyrazolo[5,1-d][1,2,5]oxadiazepine-10(2H)-carboxamide] fall in the same range of EC50: 0.1 to 0.5 µM for the first, 0.1 to 0.5 µM for the second.

Compound `COC(=O)OCC1Cn2nc3c(c2C(=O)N(C)O1)CN(C(=O)Nc1ccc(F)c(Cl)c1)CC3` (stereo not drawn) [Compound 051, (10-((3-chloro-4-fluorophenyl)carbamoyl)-2-methyl-1-oxo-1,2,4,5,8,9,10,11-octahydropyrido[4′,3′:3,4]pyrazolo[5,1-d][1,2,5]oxadiazepin-4-yl)methyl methyl carbonate] has an EC50 of 0.001 to 0.1 µM.
